Values of other authors as cited in patent publication US7468367B2, “Ethylene diamine derivatives and their use as orexin-receptor antagonists” (Smithkline Beecham p.l.c., priority 2001, dated 2008).

Assays:
orexin receptors = details: central administration at the onset of the normal sleep period
freely-feeding rats = details: central administration, 4 hour time period

orexin-A: peptide ligand and agonist of the orexin receptors; the human amino acid sequence is given in the 1st table (QPLPDCCRQKTCSCRLYELLHGAGNHAAGILTL; not fully specified; Orexin-A; UniProt O43612 34-66, looked up)
arousal in rat sleep/EEG (orexin receptors): dose-related increase in arousal | increase in food intake over control rats receiving vehicle (freely-feeding rats): approximately four-fold
